Reference: patent US20240083857A1, “2-Methyl-Quinazolines” (Bayer Pharma Aktiengesellschaft, priority 2017, published 2024)

What was measured:
[1] = target: human SOS1 (nucleotide exchange of K-Ras^G12C) (Homo sapiens, UniProt Q07889); assay: Biochemical assay 2: K-Ras^G12C activation assay by hSOS1 at high GTP concentration (HTRF); conditions: E-notation values; unit inferred; 50 μM GTP; read-out: Assay 2 (KRAS-Activation, high GTP) IC50
[2] = target: human SOS1 (loading of human K-Ras^G12C-GDP with fluorescent GTP-analog) (Homo sapiens, UniProt Q07889); assay: Biochemical assay 3: K-Ras^G12C activation assay by hSOS1 (HTRF); conditions: E-notation values; unit inferred; read-out: Assay 3 (KRAS-Activation) IC50

Compound | IC50 [1] | IC50 [2]
COc1cc(C)c2nc(C)nc(N[C@H](C)c3cccc(Cl)c3)c2c1 [Example 396, N-[(1R)-1-(3-chlorophenyl)ethyl]-6-methoxy-2,8-dimethylquinazolin-4-amine] | 1150 nM | 3130 nM
COc1cc2nc(C)nc(NC(C)c3ccc(-c4cccc(Cl)c4CN)s3)c2cc1OC (stereo not drawn) [Example 397, N-[1-{5-[2-(aminomethyl)-3-chlorophenyl]thiophen-2-yl}ethyl]-6,7-dimethoxy-2-methylquinazolin-4-amine] | 209 nM | 249 nM
COc1cc2nc(C)nc(NC(C)c3ccc(-c4ccc(Cl)cc4CN)s3)c2cc1OC (stereo not drawn) [Example 398, N-[1-{5-[2-(aminomethyl)-4-chlorophenyl]thiophen-2-yl}ethyl]-6,7-dimethoxy-2-methylquinazolin-4-amine] | 63.4 nM | 72.1 nM
COc1cc2nc(C)nc(NC(C)c3cc(C)c(-c4ccc(F)cc4CN)s3)c2cc1OC (stereo not drawn) [Example 399, N-(1-{5-[2-(aminomethyl)-4-fluorophenyl]-4-methyl-2-thienyl}ethyl)-6,7-dimethoxy-2-methylquinazolin-4-amine] | 192 nM | 296 nM
COc1cc2nc(C)nc(NC(C)c3cc(C)c(-c4ccccc4CN(C)C)s3)c2cc1OC (stereo not drawn) [Example 400, N-[1-(5-{2-[(dimethylamino)methyl]phenyl}-4-methyl-2-thienyl)ethyl]-6,7-dimethoxy-2-methylquinazolin-4-amine] | 68.8 nM | 76.6 nM
COc1cc2nc(C)nc(NC(C)c3cc(C)c(-c4ccccc4CN(C)CCO)s3)c2cc1OC (stereo not drawn) [Example 401, 2-{[2-(5-{1-[(6,7-dimethoxy-2-methylquinazolin-4-yl)amino]ethyl}-3-methyl-2-thienyl)benzyl](methyl)amino}ethanol] | 65.2 nM | 82.3 nM
CNCc1ccccc1-c1sc(C(C)Nc2nc(C)nc3cc(OC)c(OC)cc23)cc1C (stereo not drawn) [Example 402, 6,7-di methoxy-2-methyl-N-[1-(4-methyl-5-{2-[(methylamino)methyl]phenyl}thiophen-2-yl)ethyl]quinazolin-4-amine] | 75.2 nM | 98.1 nM
COc1cc2nc(C)nc(NC(C)c3ccc(-c4ccccc4C(O)CO)s3)c2cc1OC (stereo not drawn) [Example 403] | 548 nM | 632 nM
Cc1ccc2nc(C)nc(N[C@H](C)c3cccc(Cl)c3)c2c1 [Example 404, N-[(1R)-1-(3-chlorophenyl)ethyl]-2,6-dimethylquinazolin-4-amine] | 1450 nM | 9300 nM
Cc1nc(N[C@H](C)c2cccc(Cl)c2)c2cc(-c3cn[nH]c3)ccc2n1 [Example 405, N-[(1R)-1-(3-chlorophenyl)ethyl]-2-methyl-6-(1H-pyrazol-4-yl)quinazolin-4-amine] | 448 nM | 1310 nM
Cc1nc(N[C@H](C)c2cccc(Cl)c2)c2cc(-c3cnn(C)c3)ccc2n1 [Example 406, N-[(1R)-1-(3-chlorophenyl)ethyl]-2-methyl-6-(1-methyl-1H-pyrazol-4-yl)quinazolin-4-amine] | 400 nM | 855 nM
Cc1nc(N[C@H](C)c2cccc(Cl)c2)c2cc(C3CC3)ccc2n1 [Example 407, N-[(1R)-1-(3-chlorophenyl)ethyl]-6-cyclopropyl-2-methylquinazolin-4-amine] | 1060 nM | 2140 nM
COc1cc2nc(C)nc(NC(C)c3ccc(-c4c(Cl)cccc4CNC(=O)OC(C)(C)C)s3)c2cc1OC (stereo not drawn) [Example 408, tert-butyl [3-chloro-2-(5-{1-[(6,7-dimethoxy-2-methylquinazolin-4-yl)amino]ethyl}thiophen-2-yl)benzyl]carbamate] | 560 nM | 1020 nM
COc1cc2nc(C)nc(NC(C)c3ccc(-c4c(Cl)cccc4CN)s3)c2cc1OC (stereo not drawn) [Example 409, N-[1-{5-[2-(aminomethyl)-6-chlorophenyl]thiophen-2-yl}ethyl]-6,7-dimethoxy-2-methylquinazolin-4-amine] | 28 nM | 31.6 nM
COc1cc2nc(C)nc(NC(C)c3ccc(-c4ccnc(O)c4)s3)c2cc1OC (stereo not drawn) [Example 410, 4-(5-{1-[(6,7-dimethoxy-2-methylquinazolin-4-yl)amino]ethyl}-2-thienyl)pyridin-2-ol] | 2790 nM | > 20000 nM
COc1cc2nc(C)nc(NC(C)c3ccc(-c4ccccc4C4CC(=O)N4)s3)c2cc1OC (stereo not drawn) [Example 411, 4-[2-(5-{1-[(6,7-dimethoxy-2-methylquinazolin-4-yl)amino]ethyl}thiophen-2-yl)phenyl]azetidin-2-one] | > 20000 nM | > 20000 nM
COc1cc2nc(C)nc(NC(C)c3ccc(-c4ccc(C#N)cc4CN(C)C)s3)c2cc1OC (stereo not drawn) [Example 413, 4-(5-{1-[(6,7-dimethoxy-2-methylquinazolin-4-yl)amino]ethyl}thiophen-2-yl)-3-[(dimethylamino)methyl]benzonitrile] | 262 nM | 213 nM

Compound | IC50 [1] | IC50 [2]
Cc1nc(NC(C)c2ccc(Br)s2)c2cc(N3CCC(N(C)C)C3)ccc2n1 (stereo not drawn) [Example 414, N-[1-(5-bromothiophen-2-yl)ethyl]-6-[3-(dimethylamino)pyrrolidin-1-yl]-2-methylquinazolin-4-amine] | 1240 nM | 1460 nM
Cc1nc(NC(C)c2ccc(Br)s2)c2cc(N3CCN(C)CC3)ccc2n1 (stereo not drawn) [Example 416, N-[1-(5-bromothiophen-2-yl)ethyl]-2-methyl-6-(4-methylpiperazin-1-yl)quinazolin-4-amine] | 697 nM | 1140 nM
Cc1nc(NC(C)c2ccc(-c3ccccc3CN(C)C)s2)c2cc(N3CCN(C)CC3)ccc2n1 (stereo not drawn) [Example 417, N-[1-(5-{2-[(dimethylamino)methyl]phenyl}thiophen-2-yl)ethyl]-2-methyl-6-(4-methylpiperazin-1-yl)quinazolin-4-amine] | 28.9 nM | 35.3 nM
Cc1nc(NC(C)c2ccc(-c3ccccc3CN(C)C)s2)c2cc(N3CCC(N(C)C)C3)ccc2n1 (stereo not drawn) [Example 418, N-[1-(5-{2-[(dimethylamino)methyl]phenyl}thiophen-2-yl)ethyl]-6-[3-(dimethylamino)pyrrolidin-1-yl]-2-methylquinazolin-4-amine] | 39.8 nM | 45.1 nM
Cc1nc(NC(C)c2ccc(Br)s2)c2cc(N3CCCC3)ccc2n1 (stereo not drawn) [Example 419, N-[1-(5-bromothiophen-2-yl)ethyl]-2-methyl-6-(pyrrolidin-1-yl)quinazolin-4-amine] | 3740 nM | 14300 nM
CC(=O)Nc1ccc2nc(C)nc(NC(C)c3ccc(-c4ccccc4CN(C)C)s3)c2c1 (stereo not drawn) [Example 420, N-(4-{[1-(5-{2-[(dimethylamino)methyl]phenyl}thiophen-2-yl)ethyl]amino}-2-methylquinazolin-6-yl)acetamide] | 384 nM | 579 nM
COc1ccc(-c2ccc(C(C)Nc3nc(C)nc4cc(OC)c(OC)cc34)s2)c(C)c1 (stereo not drawn) [Example 422, 6,7-dimethoxy-N-{1-[5-(4-methoxy-2-methylphenyl)thiophen-2-yl]ethyl}-2-methylquinazolin-4-amine] | 914 nM | 3600 nM
Cc1nc(NC(C)c2ccc(-c3ccccc3CN(C)C)s2)c2cc(N)ccc2n1 (stereo not drawn) [Example 423, N4-[1-(5-{2-[(dimethylamino)methyl]phenyl}-2-thienyl)ethyl]-2-methylquinazoline-4,6-diamine] | 187 nM | 303 nM
Cc1nc(NC(C)c2ccc(Br)s2)c2cc(N3CCN(Cc4cccnc4)CC3)ccc2n1 (stereo not drawn) [Example 424, N-[1-(5-bromothiophen-2-yl)ethyl]-2-methyl-6-[4-(pyridin-3-ylmethyl)piperazin-1-yl]quinazolin-4-amine] | 1410 nM | 3760 nM
Cc1nc(NC(C)c2ccc(Br)s2)c2cc(NCCN3CCOCC3)ccc2n1 (stereo not drawn) [Example 425, N4-[l-(5-bromo-2-thienyl)ethyl]-2-methyl-N6-[2-(morpholin-4-yl)ethyl]quinazoline-4,6-diamine] | 2560 nM | 11200 nM
Cc1nc(NC(C)c2ccc(-c3ccccc3CN(C)C)s2)c2cc(N3CCN(Cc4cccnc4)CC3)ccc2n1 (stereo not drawn) [Example 426, N-[1-(5-{2-[(dimethylamino)methyl]phenyl}thiophen-2-yl)ethyl]-2-methyl-6-[4-(pyridin-3-ylmethyl)piperazin-1-yl]quinazolin-4-amine] | 23 nM | 31.5 nM
CC(=O)NCCNc1ccc2nc(C)nc(NC(C)c3ccc(-c4ccccc4CN(C)C)s3)c2c1 (stereo not drawn) [Example 427, N-{2-[(4-{[1-(5-{2-[(dimethylamino)methyl]phenyl}thiophen-2-yl)ethyl]amino}-2-methylquinazolin-6-yl)amino]ethyl}acetamide] | 49.8 nM | 73.9 nM
COc1cc2nc(C)nc(NC(C)c3sc(Br)cc3Cl)c2cc1OC (stereo not drawn) [Example 428, N-[1-(5-bromo-3-chlorothiophen-2-yl)ethyl]-6,7-dimethoxy-2-methylquinazolin-4-amine] | 705 nM | 1020 nM
COc1cc2nc(C)nc(NC(C)c3sc(-c4ccccc4CNC(=O)OC(C)(C)C)cc3Cl)c2cc1OC (stereo not drawn) [Example 429, tert-butyl [2-(4-chloro-5-{1-[(6,7-dimethoxy-2-methylquinazolin-4-yl)amino]ethyl}thiophen-2-yl)benzyl]carbamate] | 3050 nM | 5040 nM
COc1cc2nc(C)nc(NC(C)c3cc(Cl)c(-c4ccccc4CN)s3)c2cc1OC (stereo not drawn) [Example 430, N-[1-{5-[2-(aminomethyl)phenyl]-4-chlorothiophen-2-yl}ethyl]-6,7-dimethoxy-2-methylquinazolin-4-amine] | 378 nM | 584 nM
COc1cc2nc(C)nc(NC(C)c3cc(Cl)c(-c4ccccc4CN(C)C)s3)c2cc1OC (stereo not drawn) [Example 431, N-[1-(4-chloro-5-{2-[(dimethylamino)methyl]phenyl}thiophen-2-yl)ethyl]-6,7-dimethoxy-2-methylquinazolin-4-amine] | 215 nM | 302 nM
